The record followed here is US11077126B2 (priority 2017, dated 2021).

In data set [1] the test system is transplanted tumor of human non-small cell lung cancer A549 cells. Briefly: Human non-small cell lung cancer in nude mice model. The settings on record: 30 mg/kg i.g. 30 d. Here is the method: (§1) A549 cells in a logarithmic growth phase were taken and subjected to a trypan blue exclusion experiment showing that the cell viability was more than 95%, then the cells were subjected to trypsinization, centrifugation, and supernatant removal. Then cell concentration was adjusted to 1×10^7/ml with matrigel, then each nude mouse was inoculated subcutaneously with 0.2 ml of cells at its right armpit and recorded as the first day of inoculation. When the tumor growed to be greater than or equal to 100 mm^3, the mice were randomly divided into 5 groups with 6 mice in each group. […] Each group was continuously administered intragastrically for 30 days with a dose of 20 ml/kg. The mice were sacrificed the next day after drug withdrawal and the indicators were tested. The long diameter and short diameter of the tumor, and the body weight of each mouse were recorded every 3 days from drug administration to nude mouse sacrifice.
(§2) The body weight of the nude mice and the long diameter (a) and short diameter (b) of the transplanted tumor were measured every 3 days, and the tumor volume (v), relative tumor volume (RTV) and relative tumor proliferation rate (T/C) are calculated respectively according to the following formulas, wherein V=a×b^2/2; RTV=V/V0 (V0 is the tumor volume before administration, V is the tumor volume before sacrifice), and T/C (%)=treatment group RTV/model control group RTV×100%.
Each mouse was weighed and sacrificed. After the tumor was completely stripped off from the body of the mouse, the non-tumor tissues such as blood stains and fat were removed to weigh the tumor and calculate the tumor growth inhibition rate. The average tumor weight of each group of mice is used as an indicator of efficacy. Tumor growth inhibition rate (%)=(1−the average tumor weight of the treatment group/the average tumor weight of the model group)×100%.

Data set [2] relates to transplanted tumor of human cervical cancer HeLa cells. Briefly: Human cervical cancer in nude mice model. The following applies: 30 mg/kg i.g. 30 d. Here is the method:
as §1, with “Then” for “A549 cells in a logarithmic growth phase were taken and subjected to a trypan blue exclusion experiment showing that the cell viability was more than 95%, then”, “inoculation.” for “inoculation. When the tumor growed to be greater than or equal to 100 mm^3, the mice were randomly divided into 5 groups with 6 mice in each group.”
as §2
Calculation of Tumor Growth Inhibition Rate Each mouse was weighed and sacrificed. After the tumor was completely stripped off from the body of the mouse, the non-tumor tissues such as blood stains and fat were removed to weigh the tumor and calculate the tumor growth inhibition rate. The average tumor weight of each group of mice is used as an indicator of efficacy. Tumor growth inhibition rate (%)=(1−the average tumor weight of the treatment group/the average tumor weight of the model group)×100%.

Data set [3] concerns NK cell activity of spleen cells against K562 cells. Kind of data set: Natural killer (NK) cell activity of Lewis lung cancer tumor-bearing mice. The data set is classed as in vivo, C57BL/6 mouse. The protocol:
The serum-free RPMI 1640 medium was placed in a dish, and then the dish was placed on ice. The spleen was aseptically taken and gently ground with a sterile glass slide to prepare a single cell suspension. The single cell suspension was filtered with a double-layer sterile gauze, washed twice with serum-free RPMI 1640 medium, and centrifuged at 1,500 rpm for 5 min to remove the obtained supernatant. 2 mL of red blood cell lysate was added to the treated suspension, the mixture was allowed to stand for 2 min, and then 8 mL of RPMI 1640 medium was added, centrifuging was performed at 1,500 rpm for 5 min to remove the obtained supernatant, and then washing was performed twice with the RPMI 1640 medium. Trypan blue staining was performed to count the number of live cells, and the cell viability was more than 95%. […]
The spleen cell suspension was taken, and the cell density was adjusted to 1×10^7/mL (effector cells). […] Each mouse was set with: A. effector cells:target cell well (quantity ratio 20:1) to which 20 μL of spleen cell suspension and 100 μL of K562 cell suspension were added; B. an effector cell control well, to which 100 μL of spleen cell suspension and 100 μL of RPMI 1640 medium were added; and C. a target cell control well, to which 100 μL of K562 cell suspension and 100 μL of RPMI 1640 medium were added. […]

The subject of data set [4] is mouse bone marrow polychromatic erythrocytes. The following applies: NIH mice, cyclophosphamide 60 mg/kg positive control. Here is the method: It is the object to test the mutagenic potential of drugs on mammalian somatic cells, and provide a basis for clinical drug use.
An appropriate amount of 0.5% sodium carboxymethyl cellulose solution was added to prepare a suspension, and the suspension was stored in a refrigerator at 4° C. The negative control was an equal amount of 0.5% sodium carboxymethylcellulose solution. The positive control was prepared as follows: an appropriate amount of cyclophosphamide used for injection was weighed, and was dissolved in normal saline at the time of use to prepare 60 mg/kg of solution.
6 mice per group. The doses, number of administrations, and bone marrow sampling time are selected in the pre-test.
The dose is reduced by ½ LD50 as the standard, and the number of administrations is one time. According to the pre-test results, the bone marrow sampling time is to sample 24 hours after administration.
At least three dose groups, respectively: 2,000 mg/kg, 1,000 mg/kg, 500 mg/kg
The number of administrations: one-time oral administration.
Oral (Intragastric) administration.
2.4.3 Bone marrow sampling time: 24 hours after administration.
The mice were sacrificed by cervical dislocation. Then the sternums were taken to remove the muscles thereon and the attachments were wiped with a gauze. Direct smear of bone marrow was used: the sternums were cut to expose the medullary cavity, and bone marrow was extruded and mixed well with a drop of calf serum on a slide beforehand as a push piece. After being dried, the slide was fixed in methanol for 10 minutes, and then after it was dried, it was then subjected to Giemsa staining. Each mouse was microscopically examined for about 1,000 polychromatic erythrocytes with intact contours of erythrocytes, and the frequency of occurrence of micronuclei and the ratio of polychromatic erythrocytes to erythrocytes were counted.

For the compound `O=P1(N(CCCl)CCCl)NCCCO1` (stereo not shown) [Cyclophosphamide], in data set [1], the “Body Weight (g)(d1)” value was 20.89 ± 0.91 g, the “Body Weight (g)(d30)” value amounted to 18.97 ± 0.82 g, the “Inhibition Rate (%)” value worked out at 81.25% and the “Relative Tumor Proliferation Rate(T/C)” value is recorded as 23.28%. In addition, in data set [1], the “Relative Tumor Volume (RTV)” value is reported as 3.97 ± 0.68, the “Tumor Volume (mm3) (d1)” value came out at 127.26 ± 15.21 mm3, the “Tumor Volume (mm3) (d30)” value is given as 504.75 ± 143.63 mm3 and the “Tumor Weight” value came to 0.21 ± 0.11 g. For the same compound, in data set [2], the “Body Weight (g)(d1)” value is 20.04 ± 0.68 g, the “Body Weight (g)(d30)” value is 19.20 ± 0.18 g, the “Inhibition Rate (%)” value was 72.48% and the “Relative Tumor Proliferation Rate(T/C)” value turned out to be 24.35%. In data set [2], the “Relative Tumor Volume (RTV)” value was found to be 3.44 ± 0.93, the “Tumor Volume (mm3) (d30)” value is 397.88 ± 103.60 mm3 and the “Tumor Weight” value amounted to 0.49 ± 0.39 g. In addition, the “NK Cell Activity (%)” value in data set [3] (26 mg/kg, n = 6) came to 25.4 ± 6.6 %. Also, the “NK cell activity compared with the control group” value in data set [3] (cyclophosphamide, P<0.05) is listed as “significantly lower”. Further, the “micronucleus rate relative to the negative control group” value in data set [4] came to 16.85 times. Also, in data set [4] (P<0.01), the “micronuclei of polychromatic erythrocytes compared with the negative control group” value is on record as “very significant increase”.
